In patent US20120142771A1, “BIPHENYLACETAMIDE DERIVATIVE” (Dainippon Sumitomo Pharma Co., Ltd., priority 2008, published 2012):
Like-named read-outs stand apart in the source and are kept apart here.

Tests used:
[1] = system: 6 Hz psychomotor seizure model; assay: 6 Hz psychomotor seizure model; assay type: in vivo, mice; details: mice; for ED50: 6 Hz psychomotor seizure model, read-out: ED50; for ED50 / 6 Hz (Positive number/tested number): oral; for efficacy in 6 Hz psychomotor seizure model: oral administration at a dose of 100 mg/kg; for 6 Hz (Positive number/tested number): dose 100 mg/kg, 30 minutes or 1 hour after administration
Procedure: Test 4: Test of 6 Hz Psychomotor Seizure Model
Similar to Tests 1 and 2, Test 4 evaluates the anticonvulsant action of medicaments. However, unlike Tests 1 and 2, the animal model used herein represents clinical phenotypes of seizures resistant to existing antiepileptic drugs. […] After 30 minutes or an hour of administration, their corneas were electrically stimulated (6 Hz, 32 mA, 3 seconds) to induce symptoms of myoclonus in their forelimbs, Straub tail, and immobility. […] To the control mice, 0.5% tragacanth solution, 0.5% methylcellulose solution, or olive oil was administered.

amygdala-kindling model = assay: Amygdala-kindling model in rats; assay type: in vivo
Excerpt: Test 3: Test with Amygdala-Kindling Model in Rats
Test 3 evaluates the anticonvulsant action of medicaments in rats, besides mice in Tests 1 and 2. Animal model (kindling model) used herein is a very similar model to clinical findings of focal onset seizures (i.e. simple partial seizure, complex partial seizure, and secondarily generalized tonic-clonic seizure), which is known to provide excellent clinical prediction. A chronic electrode was implanted in the cortex (frontal and posterior regions) and the amygdala of Slc: Wistar male rats (body weight 250-300 g). One week after the above operation, electrical stimulation (50 Hz, 400 μA, 1 second) into the amygdala was conducted once a day for about two weeks. The stimulation condition was determined according to the method of Loscher et al. [Epilepsy Res., 40: 63-77 (2000)]. The stimulation was continued until the seizure stage 5 in the seizure severity stages according to the method of Racine et al. [Motor seizure. Electroenceph. Clin. Neurophysiol., 32:281-294 (1972)] was observed 10 consecutive times. Kindling model was thus completed. Then, test compounds (100 mg/kg) were orally administered to this model. After an hour of administration, the rats were evaluated based on three parameters, i.e., a threshold stimulus current to induce seizure (i.e. seizure threshold), the duration of afterdischrage observed on an electroencephalogram, and seizure severity (stage scores 1-5). The results of the seizure threshold and the afterdischarge duration were shown as average percentage of change from the pretreatment value obtained before the administration of each test compound. To the control rats, 0.5% tragacanth solution was administered. Minus means decreased or shortened.

[2] = system: subcutaneously pentetrazol-injected model (scPTZ); assay: Subcutaneously pentetrazol-injected model (scPTZ) test; assay type: in vivo, mice; details: pentetrazol 85 mg/kg s.c. after 1 hour; for responders at 50 mg/kg / responders at 100 mg/kg: Mus musculus, po, 1 h, read-out: scPTZ (positive number/tested number) (converted); for responders at 50 mg/kg / responders at 100 mg/kg / scPTZ (positive number/tested number): Slc: ddY male mice, 3 per group, observed 30 minutes for clonic convulsion; for anticonvulsant action in subcutaneously pentetrazol-injected model (scPTZ) test: mice, oral 50 or 100 mg/kg
How it was run: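 Pentetrazol (85 mg/kg, s.c.) was injected one hour after oral test compound at 50 or 100 mg/kg in groups of three male Slc:ddY mice weighing 20-30 g; vehicle controls got 0.5% tragacanth or 0.5% methylcellulose.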

[3] = system: maximum electroshock seizure (MES) model; assay: Maximum electroshock seizure (MES) model test; assay type: in vivo, mice; details: for responders at 50 mg/kg / responders at 100 mg/kg: Mus musculus, po, 1 h, read-out: MES (positive number/tested number) (converted); for responders at 50 mg/kg / responders at 100 mg/kg / MES (positive number/tested number): Slc: ddY male mice, 3 per group, electrical stimulation 1 hour after administration, inhibition of hind limb extension; for anticonvulsant action in maximum electroshock seizure (MES) model test: mice, oral 50 or 100 mg/kg, 1 hour after administration
How it was run: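 Tonic hind-limb extension was elicited by corneal electroshock (60 Hz, 25 mA, 0.2 s) 1 h after oral dosing. Test compounds were given at 50 or 100 mg/kg to groups of 3 male Slc: ddY mice (20-30 g), vehicle controls receiving 0.5% tragacanth or 0.5% methylcellulose solution.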

Slc: ddY male mice = assay: Rotarod performance test (motor disturbance); assay type: in vivo; details: 1 hour after administration, 10 mice
Procedure: Test 5: Rotarod Performance Test
Test 5 evaluates whether motor disturbance is caused by medicaments. On the day before the test, Slc: ddY male mice (body weight 20-30 g) were trained so that they could walk on a rotarod apparatus for 3 minutes without falling, wherein a cylinder of 4 cm diameter is rotated with a speed of 13 rotations per minute. Test compounds were orally administered to a group consisting of 10 mice. […] When the mice fell down within 100 seconds because of disturbed motor coordination, such mice were counted as positive. To the control mice, 0.5% methylcellulose solution was administered.

NC(=O)Cc1ccccc1-c1cccc(F)c1 [Example 25, 2-(3′-fluorobiphenyl-2-yl)acetamide]
ED50 ([1]; Mus musculus): 61.9 mg/kg
efficacy in 6 Hz psychomotor seizure model [1]: potent efficacy
6 Hz (Positive number/tested number) [1]: 10/10/100
Seizure threshold (uA) Δ % change (amygdala-kindling model; 100 mg/kg oral, 1 hour after administration, average percentage of change from pretreatment value): 69.4%
Afterdischarge duration (sec) Δ % change (amygdala-kindling model; 100 mg/kg oral, 1 hour after administration, change from pretreatment value, minus means shortened): −100%
Seizure severity score (amygdala-kindling model; 100 mg/kg oral, 1 hour after administration, stage scores 1-5): 0.0
efficacy against the amygdala-kindling model (amygdala-kindling model; oral administration at a dose of 100 mg/kg): potent efficacy
responders at 50 mg/kg ([2]; 50 mg/kg oral): 100%
responders at 100 mg/kg ([2]; 100 mg/kg oral): 100%
anticonvulsant action in subcutaneously pentetrazol-injected model (scPTZ) test [2]: anticonvulsant action was observed
responders at 50 mg/kg ([3]; 50 mg/kg oral): 100%
responders at 100 mg/kg ([3]; 100 mg/kg oral): 100%
anticonvulsant action in maximum electroshock seizure (MES) model test [3]: anticonvulsant action was observed
The rate of mice which fell within 100 seconds (%) (Slc: ddY male mice; 100 mg/kg oral): 0%
The rate of mice which fell within 100 seconds (%) (Slc: ddY male mice; 200 mg/kg oral): 10%
The rate of mice which fell within 100 seconds (%) (Slc: ddY male mice; 300 mg/kg oral): 60%
The rate of mice which fell within 100 seconds (%) (Slc: ddY male mice; 400 mg/kg oral): 90%

NC(=O)Cc1cc(F)ccc1-c1ccccc1F [Example 46, 2-(2′,4-difluorobiphenyl-2-yl)acetamide]
ED50 ([1]; Mus musculus): 120 mg/kg
6 Hz (Positive number/tested number) [1]: 5/10/100
responders at 50 mg/kg ([2]; 50 mg/kg oral): 0%
responders at 100 mg/kg ([2]; 100 mg/kg oral): 100%
responders at 50 mg/kg ([3]; 50 mg/kg oral): 66.7%
responders at 100 mg/kg ([3]; 100 mg/kg oral): 100%
The rate of mice which fell within 100 seconds (%) (Slc: ddY male mice; 100 mg/kg oral): 20%
The rate of mice which fell within 100 seconds (%) (Slc: ddY male mice; 200 mg/kg oral): 20%
The rate of mice which fell within 100 seconds (%) (Slc: ddY male mice; 300 mg/kg oral): 60%
The rate of mice which fell within 100 seconds (%) (Slc: ddY male mice; 400 mg/kg oral): 90%

NC(=O)Cc1ccccc1-c1cc(Cl)cc(Cl)c1 [Example 71, 2-(3′,5′-dichlorobiphenyl-2-yl)acetamide]
ED50 ([1]; Mus musculus): 82.8 mg/kg
6 Hz (Positive number/tested number) [1]: 7/10/100
responders at 50 mg/kg ([2]; 50 mg/kg oral): 66.7%
responders at 100 mg/kg ([2]; 100 mg/kg oral): 66.7%
anticonvulsant action in subcutaneously pentetrazol-injected model (scPTZ) test [2]: anticonvulsant action was observed
responders at 50 mg/kg ([3]; 50 mg/kg oral): 66.7%
responders at 100 mg/kg ([3]; 100 mg/kg oral): 100%
anticonvulsant action in maximum electroshock seizure (MES) model test [3]: anticonvulsant action was observed
The rate of mice which fell within 100 seconds (%) (Slc: ddY male mice; 100 mg/kg oral): 0%
The rate of mice which fell within 100 seconds (%) (Slc: ddY male mice; 200 mg/kg oral): 20%
The rate of mice which fell within 100 seconds (%) (Slc: ddY male mice; 300 mg/kg oral): 30%
The rate of mice which fell within 100 seconds (%) (Slc: ddY male mice; 400 mg/kg oral): 70%

NC(=O)Cc1ccccc1-c1cc(OC(F)(F)F)ccc1F [Example 93, 2-[2′-fluoro-5′-(trifluoromethoxy)biphenyl-2-yl]acetamide]
6 Hz (Positive number/tested number) [1]: 2/5/100
responders at 50 mg/kg ([2]; 50 mg/kg oral): 33.3%
responders at 100 mg/kg ([2]; 100 mg/kg oral): 100%
responders at 50 mg/kg ([3]; 50 mg/kg oral): 100%
responders at 100 mg/kg ([3]; 100 mg/kg oral): 100%

NC(=O)C(O)c1ccccc1-c1cccc(F)c1 (centres unmarked) [Example 178, 2-(3′-fluorobiphenyl-2-yl)-2-hydroxyacetamide]
ED50 ([1]; Mus musculus): 117 mg/kg
6 Hz (Positive number/tested number) [1]: 5/10/100
responders at 50 mg/kg ([2]; 50 mg/kg oral): 100%
responders at 100 mg/kg ([2]; 100 mg/kg oral): 100%
anticonvulsant action in subcutaneously pentetrazol-injected model (scPTZ) test [2]: anticonvulsant action was observed
responders at 50 mg/kg ([3]; 50 mg/kg oral): 66.7%
responders at 100 mg/kg ([3]; 100 mg/kg oral): 100%
anticonvulsant action in maximum electroshock seizure (MES) model test [3]: anticonvulsant action was observed

NC(=O)C(O)c1ccccc1-c1cc(Cl)cc(Cl)c1 (centres unmarked) [Example 183, 2-(3′,5′-dichlorobiphenyl-2-yl)-2-hydroxyacetamide]
6 Hz (Positive number/tested number) [1]: 4/5/100
responders at 50 mg/kg ([2]; 50 mg/kg oral): 66.7%
responders at 100 mg/kg ([2]; 100 mg/kg oral): 66.7%
anticonvulsant action in subcutaneously pentetrazol-injected model (scPTZ) test [2]: anticonvulsant action was observed
responders at 50 mg/kg ([3]; 50 mg/kg oral): 100%
responders at 100 mg/kg ([3]; 100 mg/kg oral): 100%
anticonvulsant action in maximum electroshock seizure (MES) model test [3]: anticonvulsant action was observed

NC(=O)C(O)c1ccccc1-c1cc(F)ccc1Cl (centres unmarked) [Example 185, 2-(2′-chloro-5′-fluorobiphenyl-2-yl)-2-hydroxyacetamide]
efficacy in 6 Hz psychomotor seizure model [1]: potent efficacy
6 Hz (Positive number/tested number) [1]: 5/5/100
responders at 50 mg/kg ([2]; 50 mg/kg oral): 66.7%
responders at 100 mg/kg ([2]; 100 mg/kg oral): 100%
anticonvulsant action in subcutaneously pentetrazol-injected model (scPTZ) test [2]: anticonvulsant action was observed
responders at 50 mg/kg ([3]; 50 mg/kg oral): 66.7%
responders at 100 mg/kg ([3]; 100 mg/kg oral): 100%
anticonvulsant action in maximum electroshock seizure (MES) model test [3]: anticonvulsant action was observed

NC(=O)C(O)c1cc(F)ccc1-c1cc(Cl)cc(Cl)c1 (centres unmarked) [Example 189, 2-(3′,5′-dichloro-4-fluorobiphenyl-2-yl)-2-hydroxyacetamide]
6 Hz (Positive number/tested number) [1]: 3/5/100
responders at 50 mg/kg ([2]; 50 mg/kg oral): 33.3%
responders at 100 mg/kg ([2]; 100 mg/kg oral): 66.7%
responders at 50 mg/kg ([3]; 50 mg/kg oral): 100%
responders at 100 mg/kg ([3]; 100 mg/kg oral): 66.7%

NC(=O)C(O)c1ccccc1-c1ccccc1Cl (centres unmarked) [Example 190, 2-(2′-chlorobiphenyl-2-yl)-2-hydroxyacetamide]
efficacy in 6 Hz psychomotor seizure model [1]: potent efficacy
6 Hz (Positive number/tested number) [1]: 5/5/100
responders at 50 mg/kg ([2]; 50 mg/kg oral): 66.7%
responders at 100 mg/kg ([2]; 100 mg/kg oral): 66.7%
anticonvulsant action in subcutaneously pentetrazol-injected model (scPTZ) test [2]: anticonvulsant action was observed
responders at 50 mg/kg ([3]; 50 mg/kg oral): 66.7%
responders at 100 mg/kg ([3]; 100 mg/kg oral): 100%
anticonvulsant action in maximum electroshock seizure (MES) model test [3]: anticonvulsant action was observed

NC(=O)[C@@H](O)c1ccccc1-c1ccccc1 [Example 208, 2-(biphenyl-2-yl)-2S-hydroxyacetamide]
ED50 [1]: 90.6 mg/kg
6 Hz (Positive number/tested number) [1]: 7/10/100
scPTZ (positive number/tested number) ([2]; 50 mg/kg oral): 1/3
scPTZ (positive number/tested number) ([2]; 100 mg/kg oral): 2/3
MES (positive number/tested number) ([3]; 50 mg/kg oral): 2/3
MES (positive number/tested number) ([3]; 100 mg/kg oral): 3/3
